Reference: US20230312481A1, “SUBSTITUTED (PHTHALAZIN-1-YLMETHYL)UREAS, SUBSTITUTED N-(PHTHALAZIN-1-YLMETHYL)AMIDES, AND ANALOGUES THEREOF” (priority 2020, published 2023)
Like-named read-outs stand apart in the source and are kept apart here.

Test system: HBV rcDNA in HepDE19 cells
Assay: HepDE19 assay with bDNA quantitation of HBV rcDNA
Format: cell-based, hepatitis B virus
Settings: read-out: DE-19bDNA EC50
Protocol: HepDE19 Assay With bDNA Quantitation of HBV rcDNA
HepDE19 (50,000 cells/well) were plated in 96-well collagen-coated tissue-culture treated microtiter plates in DMEM/F12 medium supplemented with 10% fetal bovine serum, 1% penicillin-streptomycin and 1 µg/mL tetracycline and incubated in a humidified incubator at 37° C. and 5% CO2 overnight. Next day, the cells were switched to fresh medium without tetracycline and incubated for 4 hours at 37° C. and 5% CO2. […] The final DMSO concentration in the assay was 0.5%. The plates were incubated for 7 days in a humidified incubator at 37° C. and 5% CO2. Following a 7 day-incubation, the level of rcDNA present in the inhibitor-treated wells was measured using a Quantigene 2.0 bDNA assay kit (Affymetrix, Santa Clara, CA) with HBV specific custom probe set and manufacturers instructions. Concurrently, the effect of compounds on cell viability was assessed using replicate plates, plated at a density of 5,000 cells/well and incubated for 4 days, to determine the ATP content as a measure of cell viability using the cell-titer glo reagent (CTG; Promega Corporation, Madison, WI) as per manufacturer’s instructions.
Representative compounds of the disclosure were tested for their abilities to inhibit formation of relaxed circular DNA (rcDNA) in a HepDE19 assay, as described elsewhere herein.

[1] = Hepatitis B virus, HepDE19, 168 h, HepDE19 cells, 7 day incubation, rcDNA measured by Quantigene 2.0 bDNA assay, top concentration 25 µM
[2] = Hepatitis B virus, HepDE19, 168 h
[3] = HepDE19 cells, 7 day incubation, rcDNA measured by Quantigene 2.0 bDNA assay, top concentration 25 µM

Row | SMILES | EC50 [1] [nM] | other results
1 | CC(c1n[nH]c(=O)c2cc(F)c(F)cc12)N(C)C(=O)c1cccc(C(F)F)c1 (racemic) [Compound 71, N-(1-(6,7-difluoro-4-oxo-3,4-dihydrophthalazin-1-yl)ethyl)-3-(difluoromethyl)-N-methylbenzamide] | 220 | –
2 | C[C@@H](c1nn(C)c(=O)c2cc(F)c(F)cc12)N(C)C(=O)Nc1ccc(F)c(Cl)c1 [Compound 37, (S)-3-(3-chloro-4-fluorophenyl)-1-(1-(6,7-difluoro-3-methyl-4-oxo-3,4-dihydrophthalazin-1-yl)ethyl)-1-methylurea] | – | EC50 [2]: 2300 nM
3 | CC(c1n[nH]c(=O)c2cc(F)c(F)cc12)N(C)C(=O)c1ccccc1 (racemic) [Compound 74, N-(1-(6,7-difluoro-4-oxo-3,4-dihydrophthalazin-1-yl)ethyl)-N-methylbenzamide] | – | EC50 [2]: 17700 nM
4 | CC(c1n[nH]c(=O)c2cc(Cl)ccc12)N(C)C(=O)Nc1ccc(F)c(Cl)c1 (racemic) [Compound 12, 3-(3-chloro-4-fluorophenyl)-1-(1-(6-chloro-4-oxo-3,4-dihydrophthalazin-1-yl)ethyl)-1-methylurea] | 260 | –
5 | CC(c1n[nH]c(=O)c2cc(F)c(F)cc12)N(C)C(=O)c1ccc2c(c1)CCC2 (single isomer, unassigned) [Compound 83, N-(1-(6,7-difluoro-4-oxo-3,4-dihydrophthalazin-1-yl)ethyl)-N-methyl-2,3-dihydro-1H-indene-5-carboxamide] | – | EC50 [3]: 80 nM
6 | CC(C)CN(C(=O)Nc1ccc(F)c(Cl)c1)C(C)c1nn(C)c(=O)c2ccccc12 (racemic) [Compound 8, 3-(3-chloro-4-fluorophenyl)-1-isobutyl-1-(1-(3-methyl-4-oxo-3,4-dihydrophthalazin-1-yl)ethyl)urea] | 20 | –
7 | CC(c1n[nH]c(=O)c2cc(F)c(F)cc12)N(C)C(=O)c1ccc2cn[nH]c2c1 (single isomer, unassigned) [Compound 112, N-(1-(6,7-difluoro-4-oxo-3,4-dihydrophthalazin-1-yl)ethyl)-N-methyl-1H-indazole-6-carboxamide] | – | EC50 [3]: > 25000 nM
8 | CC(c1n[nH]c(=O)c2ccccc12)N(C)C(=O)Nc1ccc(F)c(Cl)c1 (single isomer, unassigned) [Compound 3, 3-(3-chloro-4-fluoro-phenyl)-1-methyl-1-[1-(4-oxo-3H-phthalazin-1-yl)ethyl]urea] | – | EC50 [3]: 14000 nM
9 | C[C@H](c1n[nH]c(=O)c2cc(F)c(F)cc12)N(C)C(=O)Nc1ccc(F)c(F)c1 [Compound 41, (R)(1-(6,7-difluoro-4-oxo-3,4-dihydrophthalazinyl)ethyl)methyl-3-(3,4-difluorophenyl)urea] | – | EC50 [2]: 24 nM
10 | CC(c1n[nH]c(=O)c2cc(F)c(F)cc12)N(C)C(=O)c1ccc2ncsc2c1 (single isomer, unassigned) [Compound 86, N-(1-(6,7-difluoro-4-oxo-3,4-dihydrophthalazin-l-yl)ethyl)-N-methylbenzo[d]thiazole-6-carboxamide] | – | EC50 [3]: ≥ 25000 nM
11 | CC(C)CN(C(=O)Nc1ccc(F)cc1)C(C)c1n[nH]c(=O)c2cc(Cl)ccc12 (racemic) [Compound 11, 1-(1-(6-chloro-4-oxo-3,4-dihydrophthalazin-1-yl)ethyl)-3-(4-fluorophenyl)-1-isobutylurea] | 40 | –
12 | CC(c1n[nH]c(=O)c2cc(F)c(F)cc12)N(C)C(=O)c1cc2sc(F)cc2[nH]1 (single isomer, unassigned) [Compound 103, N-(1-(6,7-difluoro-4-oxo-3,4-dihydrophthalazin-1-yl)ethyl)-2-fluoro-N-methyl-4H-thieno[3,2-b]pyrrole-5-carboxamide] | – | EC50 [3]: 60 nM
13 | CC(c1n[nH]c(=O)c2cc(F)c(F)cc12)N(C)C(=O)c1ccc2scnc2c1 (single isomer, unassigned) [Compound 84, N-(1-(6,7-difluoro-4-oxo-3,4-dihydrophthalazin-1-yl)ethyl)-N-methylbenzo[d]thiazole-5-carboxamide] | – | EC50 [3]: > 25000 nM
14 | CC(c1n[nH]c(=O)c2c(F)cccc12)N(C)C(=O)Nc1ccc(F)c(Cl)c1 (stereo not drawn) [Compound 44, 3-(3-chloro-4-fluorophenyl)-1-(1-(5-fluoro-4-oxo-3,4-dihydrophthalazin-1-yl)ethyl)-1-methylurea] | 290 | –
15 | CC(c1n[nH]c(=O)c2cc(F)c(F)cc12)N(C)C(=O)c1ccc(Cl)c(F)c1 (racemic) [Compound 64, 4-chloro-N-(1-(6,7-difluoro-4-oxo-3,4-dihydrophthalazin-1-yl)ethyl)-3-fluoro-N-methylbenzamide] | 140 | –
16 | CC(C)CN(C(=O)Nc1ccc(F)c(Cl)c1)C(C)c1n[nH]c(=O)c2cc(F)ccc12 (racemic) [Compound 15, 3-(3-chloro-4-fluorophenyl)-1-(1-(6-fluoro-4-oxo-3,4-dihydrophthalazin-1-yl)ethyl)-1-isobutylurea] | 10 | –
17 | CC(c1nn(C)c(=O)c2cc(F)c(F)cc12)N(CCS(=O)(=O)NC(=O)Nc1ccc(F)c(Cl)c1)C(=O)Nc1ccc(F)c(Cl)c1 (racemic) [Compound 30, 3-(3-chloro-4-fluoro-phenyl)-1-[2-[(3-chloro-4-fluorophenyl)carbamoylsulfamoyl]ethyl]-1-[1-(6,7-difluoro-3-methyl-4-oxo-phthalazin-1-yl)ethyl]urea] | 58 | –
18 | C[C@H](c1n[nH]c(=O)c2cc(F)c(F)cc12)N(C)C(=O)Nc1cc(F)c(F)c(F)c1 [Compound 42, (R)(1-(6,7-difluoro-4-oxo-3,4-dihydrophthalazinyl)ethyl)methyl-3-(3,4,5-trifluorophenyl)urea] | – | EC50 [2]: 25 nM
19 | CC(c1n[nH]c(=O)c2cc(F)c(F)cc12)N(C)C(=O)c1cc(F)c(Br)c(F)c1 (single isomer, unassigned) [Compound 101, 4-bromo-N-(1-(6,7-difluoro-4-oxo-3,4-dihydrophthalazin-1-yl)ethyl)-3,5-difluoro-N-methylbenzamide] | – | EC50 [3]: 50 nM
20 | C[C@@H](c1nn(C)c(=O)c2cc(F)c(F)cc12)N(C)C(=O)Nc1ccc(F)cc1 [Compound 38, (S)(1-(6,7-difluoro-3-methyl-4-oxo-3,4-dihydrophthalazinyl)ethyl)-3-(4-fluorophenyl)methylurea] | – | EC50 [2]: 8200 nM
21 | CC(c1n[nH]c(=O)c2cc(F)c(F)cc12)N(C)C(=O)c1cc2cc(F)ccc2[nH]1 (racemic) [Compound 51, N-(1-(6,7-difluoro-4-oxo-3,4-dihydrophthalazin-1-yl)ethyl)-5-fluoro-N-methyl-1H-indole-2-carboxamide] | – | EC50 [2]: 39 nM
22 | CC(C)CN(C(=O)Nc1ccc(F)c(Cl)c1)C(C)c1n[nH]c(=O)c2ccccc12 (racemic) [Compound 2, 3-(3-chloro-4-fluoro-phenyl)-1-isobutyl-1-[1-(4-oxo-3H-phthalazin-1-yl)ethyl]urea] | 10 | –
23 | CC(c1n[nH]c(=O)c2cc(F)c(F)cc12)N(C)C(=O)c1cnc(C(F)(F)F)c(F)c1 (racemic) [Compound 114, N-(1-(6,7-difluoro-4-oxo-3,4-dihydrophthalazin-1-yl)ethyl)-5-fluoro-N-methyl-6-(trifluoromethyl)nicotinamide] | 4180 | –
24 | CC(c1n[nH]c(=O)c2cc(F)c(F)cc12)N(C)C(=O)c1cc2c(Cl)cccn2c1 (racemic) [Compound 75, 8-chloro-N-(1-(6,7-difluoro-4-oxo-3,4-dihydrophthalazin-1-yl)ethyl)-N-methylindolizine-2-carboxamide] | 60 | –
25 | CC(c1n[nH]c(=O)c2cc(F)c(F)cc12)N(C)C(=O)c1cc2cc(F)c(F)cc2[nH]1 (racemic) [Compound 50, N-(1-(6,7-difluoro-4-oxo-3,4-dihydrophthalazin-1-yl)ethyl)-5,6-difluoro-N-methyl-1H-indole-2-carboxamide] | 40 | –
26 | CC(c1n[nH]c(=O)c2cc(F)c(F)cc12)N(C)C(=O)c1cnc(C(F)(F)F)c(Cl)c1 (single isomer, unassigned) [Compound 92, 5-chloro-N-(1-(6,7-difluoro-4-oxo-3,4-dihydrophthalazin-1-yl)ethyl)-N-methyl-6-(trifluoromethyl)nicotinamide] | – | EC50 [3]: > 25000 nM
27 | CC(C)CN(C(=O)Nc1ccc(F)cc1)C(C)c1nn(C)c(=O)c2cc(F)c(F)cc12 (racemic) [Compound 24, 1-(1-(6,7-difluoro-3-methyl-4-oxo-3,4-dihydrophthalazin-1-yl)ethyl)-3-(4-fluorophenyl)-1-isobutylurea] | 7 | –
28 | CC(c1n[nH]c(=O)c2cc(F)ccc12)N(C)C(=O)Nc1ccc(F)cc1 (racemic) [Compound 18, 1-(1-(6-fluoro-4-oxo-3,4-dihydrophthalazin-1-yl)ethyl)-3-(4-fluorophenyl)-1-methylurea] | 500 | –
29 | CC(c1n[nH]c(=O)c2cc(F)c(F)cc12)N(C)C(=O)c1ccc(C(F)(F)F)cc1 (racemic) [Compound 66, N-(1-(6,7-difluoro-4-oxo-3,4-dihydrophthalazin-1-yl)ethyl)-N-methyl-4-(trifluoromethyl)benzamide] | 100 | –
30 | C[C@H](c1n[nH]c(=O)c2cc(F)c(F)cc12)N(C)C(=O)c1cc2c(F)c(F)ccc2[nH]1 [Compound 57, (R)-N-(1-(6,7-difluoro-4-oxo-3,4-dihydrophthalazin-1-yl)ethyl)-4,5-difluoro-N-methyl-1H-indole-2-carboxamide] | – | EC50 [2]: 12 nM
